Data as given in patent publication EP2420255A2, “Polypeptide inhibitors of urokinase type plasminogen activator” (Ecole Polytechnique Federale De Lausanne (EPFL), priority 2010, dated 2012).
Read-outs that look alike come from different tables or passages of the source. Numbered stars: 1 amine (or outer) side, 2 acyl side, 3 side chain; on linkers, the order of the positions; unused ones are H or OH. Bridge positions count the residues as written; N and C are the ends. Ends that are not written are not given here. Peptide text beside a SMILES is read from it. TBMB = c1c(C[*:1])cc(C[*:3])cc1C[*:2]

Legend:
uPA [1] = target: T1, uPA (Homo sapiens, UniProt P00749); conditions: literature; cited from earlier work
thrombin = conditions: literature; cited from earlier work
tPA = tPA (Homo sapiens, UniProt P00750); conditions: literature; cited from earlier work
Chain of tPA (P00750 36-562, species assumed): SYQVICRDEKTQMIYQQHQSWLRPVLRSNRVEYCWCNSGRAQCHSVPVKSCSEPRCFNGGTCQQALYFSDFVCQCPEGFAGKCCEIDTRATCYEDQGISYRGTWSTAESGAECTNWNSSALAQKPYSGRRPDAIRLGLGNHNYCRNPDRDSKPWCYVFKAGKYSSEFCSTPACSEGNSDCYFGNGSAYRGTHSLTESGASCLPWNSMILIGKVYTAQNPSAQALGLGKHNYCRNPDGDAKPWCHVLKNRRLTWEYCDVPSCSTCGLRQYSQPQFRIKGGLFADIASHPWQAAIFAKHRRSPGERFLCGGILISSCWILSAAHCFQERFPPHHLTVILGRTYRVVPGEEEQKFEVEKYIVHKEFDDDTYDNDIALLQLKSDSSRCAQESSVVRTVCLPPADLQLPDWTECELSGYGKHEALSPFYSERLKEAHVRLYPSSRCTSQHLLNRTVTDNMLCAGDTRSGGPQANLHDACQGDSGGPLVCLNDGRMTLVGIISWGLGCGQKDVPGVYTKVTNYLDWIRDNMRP

factor Xa = conditions: literature; cited from earlier work
plasma kallikrein = plasma kallikrein (Homo sapiens, UniProt P03952); conditions: literature; cited from earlier work
Chain of plasma kallikrein (P03952 391-638 limits assumed, species assumed): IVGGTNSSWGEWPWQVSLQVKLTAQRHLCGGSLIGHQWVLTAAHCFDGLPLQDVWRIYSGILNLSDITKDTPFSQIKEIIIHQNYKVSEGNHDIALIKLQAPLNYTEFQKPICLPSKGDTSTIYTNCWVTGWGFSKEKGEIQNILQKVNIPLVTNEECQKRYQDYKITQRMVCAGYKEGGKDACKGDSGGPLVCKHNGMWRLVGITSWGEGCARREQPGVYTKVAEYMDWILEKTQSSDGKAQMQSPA
Chain of plasma kallikrein (P03952 20-390 partner limits assumed, species assumed): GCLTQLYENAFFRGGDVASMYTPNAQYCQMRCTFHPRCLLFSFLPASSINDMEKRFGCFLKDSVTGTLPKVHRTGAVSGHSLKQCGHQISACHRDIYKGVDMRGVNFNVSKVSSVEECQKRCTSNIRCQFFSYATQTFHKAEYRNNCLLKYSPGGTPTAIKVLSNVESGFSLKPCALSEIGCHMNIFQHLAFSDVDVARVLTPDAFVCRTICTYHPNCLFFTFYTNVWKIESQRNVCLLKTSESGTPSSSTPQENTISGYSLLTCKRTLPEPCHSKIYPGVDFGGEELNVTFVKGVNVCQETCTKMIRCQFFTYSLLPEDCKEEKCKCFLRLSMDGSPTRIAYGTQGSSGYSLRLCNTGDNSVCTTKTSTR

[2] = test system: murine lung carcinoma model; conditions: literature; cited from earlier work
Murine uPA = target: T2, Murine uPA (Mus musculus, UniProt P06869); assay: Specificity determination of chemically synthesized inhibitors, residual protease activity; type: biochemical; conditions: murine uPA versus human uPA
T2 construct: mouse uPA (MUPA-LMW, recombinantly produced in insect cells, 31 kDa); purchased Molecular Innovations, Novi, MI, USA MUPA-LMW; host or cells: insect cells
T2 sequence (P06869 180-433 limits assumed): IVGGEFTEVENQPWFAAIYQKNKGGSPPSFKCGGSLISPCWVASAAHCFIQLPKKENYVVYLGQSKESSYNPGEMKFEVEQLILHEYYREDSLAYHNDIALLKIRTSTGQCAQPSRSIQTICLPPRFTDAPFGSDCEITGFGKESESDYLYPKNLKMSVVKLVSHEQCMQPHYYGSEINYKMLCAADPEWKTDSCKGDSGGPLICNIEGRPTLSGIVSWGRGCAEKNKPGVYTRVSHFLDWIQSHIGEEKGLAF
Description: (§1) Peptides with a free amine at the N-terminus and an amide at the C-terminus were chemically synthesized on a 50 mg to 1 g scale by solid phase chemistry (JPT Peptide Technologies, Berlin, Germany or GL Biochem Ltd., Shanghai, China). The crude peptides (1 mM) in 1 ml 5% v/v DMSO, 65% v/v 20 mM NH4HCO3, pH 8.0 and 30% v/v ACN, were reacted with TBMB (1.2 mM) for 1 hr at 30 °C. The reaction product was purified by preparative reversed-phase high performance liquid chromatography (HPLC) system (PrepLC 4000, Waters, Millford, MA, USA) and a Vydac C18 (218TP) column (22 x 250 mm) (Grace & Co., USA). At a flow rate of 20 ml/min, a linear gradient was applied with a mobile phase composed of eluant A (0.1% v/v aqueous trifluoroacetic acid (TFA) solution, 99.9 % v/v H2O) and eluant B (94.9% v/v ACN, 5% v/v H2O and 0.1 % v/v TF A). The purified peptides were freeze-dried and dissolved in H2O for activity measurements.
(§2) Residual activities were measured in buffer containing 10 mM Tris-Cl, pH 7.4, 150 mM NaCl, 10 mM MgCl2, 1mM CaCl2, 0.1% w/v BSA, 0.01% v/v Triton-X100 and 5% v/v DMSO in volume of […]. […] Absorption and fluorescence intensity were measured with a Spectramax absorption plate reader (recording at 410 nm; Molecular Devices, USA) and a Spectramax Gemini fluorescence plate reader (excitation at 355 nm, emission at 460 nm; Molecular Devices, USA), respectively. […]

uPA [3] = target: T1, uPA; conditions: literature, cited from earlier work
MDA-MB-231 cells = assay: Cell viability assay (CellTiter-Glo, ATP concentration); type: cell-based, human; conditions: 24 hrs, UK18 1-100 µM
Description: MDA-MB-231 human breast adenocarcinoma cells (ATCC) were cultured in RPMI medium (RPMI-1640 containing 25 mM HEPES and L-glutamine; NEAA, 100X Stock, and 1 unit/ml penstrep, 20'000 units/ml penicillin and 20'000 units/ml streptomycin stock, Lonza, Visp, Switzerland) supplemented with 5% v/v fetal calf serum (FCS, Lonza) at 37 °C in a humidified 5% CO2/95% air atmosphere.
The effect of UK18 on the MDA-MB-231 cell viability was measured by using the CellTiter-Glo Luminescent Cell Viability Assay (Promega, Madison, WI, USA). The assay measures the number of viable cells in culture based on the ATP concentration. 200 µL of 2.0 x 10^5 MDA-MB-231 cells/ml in RPMI media (FCS-free) supplemented with 0.2% w/v BSA were inoculated at a density of 4.0 x 10^4 cells per well in 96-well opaque walled polystyrene plate tissue culture treated (Corning Incorporated, Corning, NY, USA) for 24 hrs at 37 °C in a humidified 5% CO2/95% air atmosphere. The culture supernatant was then removed and 100 µl of new RPMI media (FCS-free) supplemented with 0.2% w/v BSA containing different three-fold dilution concentrations of UK18 (1, 3.3, 10, 33 and 100 µM) were added to the cells and the plate incubated for 24 hrs at 37 °C in a humidified 5% CO2/95% air atmosphere. […] The luminescence signal was finally recorded using a Tristar LB 941 microplate reader (Berthold Technologies, Bad Wildbad, Germany). […]

uPA [4] = target: T1, uPA; assay: Activity determination of chemically synthesized inhibitors, residual protease activity; type: biochemical; parameters: human uPA (UPA-LMW, from human urine, 33 kDa); purchased Molecular Innovations, Novi, MI, USA UPA-LMW; host or cells: human urine; conditions: synthetic peptide-TBMB conjugate, pH 7.4, 25°C
Description: as §1, §2

Compound: N=C(N)c1ccc(CNC(=O)[C@H](CO)NC(=O)[C@@H](CO)NS(=O)(=O)Cc2ccccc2)cc1 [CJ-463, benzylsulfonyl-D-Ser-Ser-4-amidinobenzylamide]
- Ki (uPA [1]): 20 nM
- inhibition (thrombin): does not inhibit significantly
- inhibition (tPA): does not inhibit significantly
- inhibition (factor Xa): does not inhibit significantly
- inhibition (plasma kallikrein): does not inhibit significantly
- primary tumour growth and metastasis formation [2]: reduce primary tumour growth and metastasis formation

Compound: CC(C)[C@@H]1NC(=O)[C@H](CCC(=O)O)NC(=O)[C@H](Cc2ccc(O)cc2)NC(=O)[C@H](CCCNC(=N)N)NC(=O)[C@H](CO)NC(=O)[C@@H](NC(=O)[C@H](C)N)CSCc2cc3cc(c2)CSC[C@H](NC(=O)[C@H](CC(=O)O)NC1=O)C(=O)N[C@@H](CCCNC(=N)N)C(=O)NCC(=O)N[C@@H](CCCNC(=N)N)C(=O)NCC(=O)N[C@@H](CO)C(=O)N[C@@H](C)C(=O)N[C@H](C(=O)NCC(N)=O)CSC3 [UK18] (H-ACSRYEVDCRGRGSACG-NH2; linker 2-9-16 via TBMB)
- Ki higher than the Ki of human uPA (Murine uPA): around 1400 times

Compound: CSWRGLENHRMC (cysteine pairing not given here) [upain-1]
- Ki (uPA [3]; at pH 6.0): 6.7 µM
- Ki (uPA [3]; at physiological pH): 29.9 µM

Compound: CC(C)[C@@H]1NC(=O)[C@H](CCC(=O)O)NC(=O)[C@H](Cc2ccc(O)cc2)NC(=O)[C@H](CCCN=C(N)N)NC(=O)[C@H](CO)NC(=O)[C@@H](NC(=O)[C@H](C)N)CSCc2cc3cc(c2)CSC[C@H](NC(=O)[C@H](CC(=O)O)NC1=O)C(=O)N[C@@H](CCCN=C(N)N)C(=O)NCC(=O)N[C@@H](CCCN=C(N)N)C(=O)NCC(=O)N[C@@H](CO)C(=O)N[C@@H](C)C(=O)N[C@H](C(=O)NCC(N)=O)CSC3 [UK18] (H-ACSRYEVDCRGRGSACG-NH2; linker 2-9-16 via TBMB)
- cell viability (MDA-MB-231 cells): not toxic
- IC50 (uPA [4]): 47.2 nM
- Ki (uPA [4]; corresponding to the IC50): 30.1 nM
